What was measured:
[1] = Solubility of procysteine; type: physicochemical
corneodesmosine = assay: Evaluating desquamation by measuring the degradation of corneodesmosines (immunoblot of stratum corneum acetonic powders); type: biochemical, human; settings: aqueous solution containing 2% of active agent, pH 8.0, incubation 17 h at 30° C., versus control without active agent
From the text: Corneodesmosine is one of the major markers of desquamation of the corneodesmosome. It is studied by immunoblotting after separation by electrophoresis and transfer onto a membrane.
The mouse monoclonal antibody G36-19 is specific for corneodesmosine; it fauns part of a series of antibodies directed against epidermal differentiation antigens, produced after immunizing a mouse with a homogenate of human plantar horny layer, and then characterized (Serre G. et al., J. Invest. Dermatol. 1991; 97(6):1061-72).
Varnish-stripping operations are carried out on the lower legs of volunteers (modification of the procedure by Lundström A. and Egelrud T., Acta Derm. Venereol. (Stockholm) 71, 471-474, 1991). […]
The samples and also a Rainbow (Amersham Pharmacia Biotech) low molecular weight standard at 1/3 are separated by electrophoresis on gel containing 12% acrylamide for 30 minutes at 100 V and then for 1 hour at 200 V. After the electrophoresis, the proteins are transferred onto an Immobilon-P membrane (Millipore) for 3 hours at 60 V. The membrane is then incubated for twice 15 minutes in TBS-TL buffer: 25 mM Tris, 0.15M NaCl pH 7.2, 0.05% Tween 20, 0.5% skimmed milk powder, in order to block the non-specific sites. […] The chemiluminescence of the corneodesmosine bands is measured with the FluorS Multimager (Biorad). The 33 and 46 kD bands are quantified with the Quantity-one software (Biorad). […]

- solubility in ethanol ([1]; ethanol): greater than 10%
- solubility in water ([1]; water): greater than 4%
SMILES: O=C1N[C@H](C(=O)O)CS1 [Procysteine, L-2-oxothiazolidine-4-carboxylic acid]
- Percentage increase in corneodesmosine degradation (corneodesmosine): 77%
